Source: patent publication US20250304576A1 (Cancer Research Technology Limited, priority 2022, published 2025)

Molecular target: T1, Recombinant IKKβ (Homo sapiens, UniProt O14920)
T1 construct: purchased Millipore, Dundee, UK
T1 sequence (O14920 1-756): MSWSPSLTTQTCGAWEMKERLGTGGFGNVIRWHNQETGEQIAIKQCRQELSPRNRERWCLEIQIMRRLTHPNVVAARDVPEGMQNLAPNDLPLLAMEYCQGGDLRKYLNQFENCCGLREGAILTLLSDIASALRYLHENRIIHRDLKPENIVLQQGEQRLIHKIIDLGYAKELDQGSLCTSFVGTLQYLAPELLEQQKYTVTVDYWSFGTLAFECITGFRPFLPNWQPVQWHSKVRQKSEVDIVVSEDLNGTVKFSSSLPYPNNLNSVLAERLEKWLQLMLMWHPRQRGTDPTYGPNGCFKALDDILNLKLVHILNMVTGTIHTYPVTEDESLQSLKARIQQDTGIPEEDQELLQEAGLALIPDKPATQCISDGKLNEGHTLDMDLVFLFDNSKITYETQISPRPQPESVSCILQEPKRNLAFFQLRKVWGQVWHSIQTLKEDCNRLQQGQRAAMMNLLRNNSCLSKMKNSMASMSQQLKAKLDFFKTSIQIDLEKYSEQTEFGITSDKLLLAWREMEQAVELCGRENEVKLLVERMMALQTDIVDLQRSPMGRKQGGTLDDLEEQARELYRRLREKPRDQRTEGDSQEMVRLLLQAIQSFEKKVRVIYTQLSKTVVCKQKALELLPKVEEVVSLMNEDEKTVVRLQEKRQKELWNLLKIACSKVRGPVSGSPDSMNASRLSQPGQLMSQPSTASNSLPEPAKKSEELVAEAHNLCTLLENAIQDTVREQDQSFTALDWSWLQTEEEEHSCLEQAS
Assay: DELFIA IKKβ kinase assay (apparent Ki, Cheng-Prusoff)
Format: biochemical
Settings: DELFIA assay (first line of an example)
Outline: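 Recombinant IKKα or IKKβ (37 nM) with 0.375 μM biotinylated IκB-α (Ser32) peptide and 40 μM ATP in 40 mM Tris-HCl pH 7.5, 20 mM MgCl2, 60 min at 30° C. Phospho-substrate captured on streptavidin and detected by anti-phospho-IκB-α plus europium anti-mouse IgG time-resolved fluorescence; apparent Ki via Cheng-Prusoff.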

Which Ki does the source give for `Nc1n[nH]c2ccc(-c3ccnc4[nH]c(CN5CCCCC5)cc34)cc12` [Example 260, 5-(2-(Piperidin-1-ylmethyl)-1H-pyrrolo[2,3-b]pyridine-4-yl)-1H-indazol-3-amine] here?
Its Ki is 1720 nM.

`Nc1n[nH]c2ccc(-c3ccnc4[nH]c(C5CC5)cc34)cc12` [Example 218, 5-(2-Cyclopropyl-1H-pyrrolo[2,3-b]pyridin-4-yl)-1H-indazol-3-amine] was tested. Which Ki did it give?
The Ki was 63 nM.

`CN1CCN(C(=O)c2cc3c(-c4ccc5[nH]nc(N)c5c4)ccnc3[nH]2)CC1` [Example 243, (4-(3-Amino-1H-indazol-5-yl)-1H-pyrrolo[2,3-b]pyridin-2-yl)(4-methylpiperazin-1-yl)methanone] was tested. Which Ki did it give?
Its Ki is 1030 nM.

For `CN(C)CCCNCc1cc2c(-c3ccc4[nH]nc(N)c4c3)ccnc2[nH]1` [Example 258, N^1-((4-(3-amino-1H-indazol-5-yl)-1H-pyrrolo[2,3-b]pyridin-2-yl)methyl)-N^3,N^3-dimethylpropane-1,3-diamine], which Ki is on record?
Its Ki is 1130 nM.

How did the Ki turn out when `Nc1n[nH]c2ccc(-c3ccnc4[nH]c(CCN5CCOCC5)cc34)cc12` [Example 268, 5-(2-(2-Morpholinoethyl)-1H-pyrrolo[2,3-b]pyridin-4-yl)-1H-indazol-3-amine] was run?
Its Ki is 251 nM.

How did the Ki turn out when `Nc1n[nH]c2ccc(-c3ccnc4[nH]c(CN5CCOCC5)cc34)cc12` [Example 262, 5-(2-(Morpholinomethyl)-1H-pyrrolo[2,3-b]pyridine-4-yl)-1H-indazol-3-amine] was run?
The Ki was 277 nM.

How did the Ki turn out when `Nc1n[nH]c2ccc(-c3ccnc4[nH]c(CC5CCNCC5)cc34)cc12` [Example 272, 5-(2-(Piperidin-4-ylmethyl)-1H-pyrrolo[2,3-b]pyridin-4-yl)-1H-indazol-3-amine] was run?
Its Ki is 50 nM.

For `Nc1n[nH]c2c(C#CCCCN3CCOCC3)cc(-c3ccnc4[nH]ccc34)cc12` [Example 210, 7-(5-Morpholinopent-1-yn-1-yl)-5-(1H-pyrrolo[2,3-b]pyridin-4-yl)-1H-indazol-3-amine], which Ki is on record?
The Ki was 3100 nM.

For `C#Cc1cc(-c2ccnc3[nH]ccc23)cc2c(N)n[nH]c12` [Example 200, 7-Ethynyl-5-(1H-pyrrolo[2,3-b]pyridin-4-yl)-1H-indazol-3-amine], which Ki is on record?
The Ki was 137 nM.

With `CN1CCN(Cc2cc3c(-c4ccc5[nH]nc(N)c5c4)ccnc3[nH]2)CC1` [Example 263, 5-(2-((4-Methylpiperazin-1-yl)methyl)-1H-pyrrolo[2,3-b]pyridine-4-yl)-1H-indazol-3-amine] as the compound, how does the Ki read?
The Ki was 2430 nM.

Which Ki does the source give for `CC(C)(C)OCc1cc2c(-c3ccc4[nH]nc(N)c4c3)ccnc2[nH]1` [Example 227, 5-(2-(tert-Butoxymethyl)-1H-pyrrolo[2,3-b]pyridin-4-yl)-1H-indazol-3-amine] here?
The Ki was 754 nM.

`Nc1n[nH]c2c(C#CC3CCCC3)cc(-c3ccnc4[nH]ccc34)cc12` [Example 203, 7-(Cyclopentylethynyl)-5-(1H-pyrrolo[2,3-b]pyridin-4-yl)-1H-indazol-3-amine] was tested. Which Ki did it give?
The Ki was 452 nM.

For `Nc1n[nH]c2ccc(-c3ccnc4[nH]c(CNC5CCCCC5)cc34)cc12` [Example 251, 5-(2-((cyclohexylamino)methyl)-1H-pyrrolo[2,3-b]339yridine-4-yl)-1H-indazol-3-amine], which Ki is on record?
The Ki was 1300 nM.

`Nc1n[nH]c2ccc(-c3ccnc4[nH]c(CN5CCCCCC5)cc34)cc12` [Example 265, 5-(2-(Azepan-1-ylmethyl)-1H-pyrrolo[2,3-b]pyridine-4-yl)-1H-indazol-3-amine] was tested. Which Ki did it give?
Its Ki is 2510 nM.

How did the Ki turn out when `Nc1n[nH]c2ccc(-c3ccnc4[nH]c(CN5CCC(F)(F)CC5)cc34)cc12` [Example 261, 5-(2-((4,4-Difluoropiperidin-1-yl)methyl)-1H-pyrrolo[2,3-b]pyridine-4-yl)-1H-indazol-3-amine] was run?
Its Ki is 2390 nM.

`Nc1n[nH]c2ccc(-c3ccnc4[nH]c(CCC5CCCCC5)cc34)cc12` [Example 222, 5-(2-(2-Cyclohexylethyl)-1H-pyrrolo[2,3-b]pyridin-4-yl)-1H-indazol-3-amine] was tested. Which Ki did it give?
The Ki was 134 nM.

How did the Ki turn out when `CC(C)N(C)Cc1cc2c(-c3ccc4[nH]nc(N)c4c3)ccnc2[nH]1` [Example 259, 5-(2-((Isopropyl(methyl)amino)methyl)-1H-pyrrolo[2,3-b]pyridine-4-yl)-1H-indazol-3-amine] was run?
Its Ki is 2140 nM.

`Nc1n[nH]c2ccc(-c3ccnc4[nH]c(CCCN5CCCCC5)cc34)cc12` [Example 269, 5-(2-(3-(Piperidin-1-yl)propyl)-1H-pyrrolo[2,3-b]pyridin-4-yl)-1H-indazol-3-amine] was tested. Which Ki did it give?
The Ki was 507 nM.

With `Nc1n[nH]c2c(C#CC3CC3)cc(-c3ccnc4[nH]ccc34)cc12` [Example 202, 7-(Cyclopropylethynyl)-5-(1H-pyrrolo[2,3-b]pyridin-4-yl)-1H-indazol-3-amine] as the compound, how does the Ki read?
Its Ki is 181 nM.

Which Ki does the source give for `CC(C)(C)C#Cc1cc(-c2ccnc3[nH]ccc23)cc2c(N)n[nH]c12` [Example 201, 7-(3,3-Dimethylbut-1-yn-1-yl)-5-(1H-pyrrolo[2,3-b]pyridin-4-yl)-1H-indazol-3-amine] here?
The Ki was 1390 nM.

For `Nc1n[nH]c2c(C#CCCCN3CCCCC3)cc(-c3ccnc4[nH]ccc34)cc12` [Example 212, 7-(5-(Piperidin-1-yl)pent-1-yn-1-yl)-5-(1H-pyrrolo[2,3-b]pyridin-4-yl)-1H-indazol-3-amine], which Ki is on record?
The Ki was 2370 nM.

With `Nc1n[nH]c2ccc(-c3ccnc4[nH]c(C5CCCCC5)cc34)cc12` [Example 219, 5-(2-Cyclohexyl-1H-pyrrolo[2,3-b]pyridin-4-yl)-1H-indazol-3-amine] as the compound, how does the Ki read?
The Ki was 461 nM.

With `Nc1n[nH]c2ccc(-c3ccnc4[nH]c(CCCN5CCOCC5)cc34)cc12` [Example 271, 5-(2-(3-Morpholinopropyl)-1H-pyrrolo[2,3-b]pyridin-4-yl)-1H-indazlo-3-amine] as the compound, how does the Ki read?
The Ki was 126 nM.

With `Nc1n[nH]c2ccc(-c3ccnc4[nH]c(CO)cc34)cc12` [Example 224] as the compound, how does the Ki read?
The Ki was 503 nM.

Same assay, conditions: non-italicised figure: DELFIA assay

With `CC(C)(N)C#Cc1c(-c2ccc3[nH]nc(N)c3c2)ccnc1N` [Example 92, 5-(2-Amino-3-(3-amino-3-methylbut-1-yn-1-yl)pyridin-4-yl)-1H-indazol-3-amine] as the compound, how does the Ki read?
The Ki was 325 nM.

How did the Ki turn out when `Nc1cc(-c2cc(-c3ccccc3)c3[nH]nc(N)c3c2)ccn1` [Example 104, 5-(2-Aminopyridin-4-yl)-7-phenyl-1H-indazol-3-amine] was run?
The Ki was 838 nM.

For `Nc1nccc(-c2ccc3[nH]nc(N)c3c2)c1C#CCCCN1CCOCC1` [Example 96, 5-(2-Amino-3-(5-morpholinopent-1-yn-1-yl)pyridin-4-yl)-1H-indazol-3-amine], which Ki is on record?
The Ki was 1150 nM.

How did the Ki turn out when `Nc1cc(-c2cc(-c3ccoc3)c3[nH]nc(N)c3c2)ccn1` [Example 129, 5-(2-Aminopyridin-4-yl)-7-(furan-3-yl)-1H-indazol-3-amine] was run?
Its Ki is 511 nM.

With `Nc1nccc(-c2ccc3[nH]nc(N)c3c2)c1C#CC1CCCCC1` [Example 74, 5-(2-Amino-3-(cyclohexylethynyl)pyridine-4-yl)-1H-indazol-3-amine] as the compound, how does the Ki read?
The Ki was 342 nM.

How did the Ki turn out when `Nc1nccc(-c2ccc3[nH]nc(N)c3c2)c1C#CCCCN1CCCCC1` [Example 95, 5-(2-Amino-3-(5-(piperidin-1-yl)pent-1-yn-1-yl)pyridin-4-yl)-1H-indazol-3-amine] was run?
The Ki was 3270 nM.

How did the Ki turn out when `CC(C)(C)C#Cc1c(-c2ccc3[nH]nc(N)c3c2)ccnc1N` [Example 72, 5-(2-Amino-3-(3,3-dimethylbut-1-yn-1-yl)pyridine-4-yl)-1H-indazol-3-amine] was run?
The Ki was 268 nM.

`Nc1nccc(-c2ccc3[nH]nc(N)c3c2)c1C#Cc1ccccc1` [Example 75, 5-(2-Amino-3-(phenylethynyl)pyridine-4-yl)-1H-indazol-3-amine] was tested. Which Ki did it give?
The Ki was 152 nM.

For `Nc1nccc(-c2ccc3[nH]nc(N)c3c2)c1C#CC1(O)CCCCCC1` [Example 91, 1-((2-Amino-4-(3-amino-1H-indazol-5-yl)pyridine-3-yl)ethynyl)cycloheptan-1-ol], which Ki is on record?
The Ki was 3090 nM.

With `Nc1nccc(-c2ccc3[nH]nc(N)c3c2)c1C#CC1(O)CCCCC1` [Example 90, 1-((2-Amino-4-(3-amino-1H-indazol-5-yl)pyridine-3-yl)ethynyl)cyclohexan-1-ol] as the compound, how does the Ki read?
The Ki was 1410 nM.

Which Ki does the source give for `Nc1nccc(-c2ccc3[nH]nc(N)c3c2)c1C#CCCO` [Example 84, 4-(2-Amino-4-(3-amino-1H-indazol-5-yl)pyridine-3-yl)but-3-yn-1-ol] here?
Its Ki is 103 nM.

For `CC(C)(O)C#Cc1cc(-c2ccnc(N)c2)cc2c(N)n[nH]c12` [Example 140, 4-(3-Amino-5-(2-aminopyridin-4-yl)-1H-indazol-7-yl)-2-methylbut-3-yn-2-ol], which Ki is on record?
The Ki was 3000 nM.

Which Ki does the source give for `CC(C)(C)OCC#Cc1c(-c2ccc3[nH]nc(N)c3c2)ccnc1N` [Example 88, 5-(2-Amino-3-(3-(tert-butoxy)prop-1-yn-1-yl)pyridine-4-yl)-1H-indazol-3-amine] here?
Its Ki is 2340 nM.

For `Nc1nccc(-c2ccc3[nH]nc(N)c3c2)c1C#CCCN1CCCCC1` [Example 93, 5-(2-Amino-3-(4-(piperidin-1-yl)but-1-yn-1-yl)pyridin-4-yl)-1H-indazol-3-amine], which Ki is on record?
The Ki was 880 nM.
